ChEMBL document CHEMBL1201862, “PubChem BioAssay data set” (2004)
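Five compound concentrations were applied to cells in 96-well plates for 48 hours; endpoints were derived by simple linear interpolation of the resulting dose-response curve. At the GI50, growth is halved.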 Activity calls are given as the source filed them. Cut-off read from the data, not from the text of the source: active = GI50 up to about 1.1 µM and inactive = higher.

Columns and labels:
Experiment in all cases: DTP human tumour cell line panel, 48 h
ACHN = system: ACHN
CAKI-1 = system: CAKI-1
COLO 205 = system: COLO 205
HCT-15 = system: HCT-15
HL-60 = system: HL-60
Hs-578T = system: Hs-578T
IGROV-1 = system: IGROV-1
MDA-MB-435 = system: MDA-MB-435
NCI-H460 = system: NCI-H460
OVCAR-8 = system: OVCAR-8
PC-3 = system: PC-3
SF-268 = system: SF-268
SF-539 = system: SF-539
SW-620 = system: SW-620
T47D = system: T47D
TK-10 = system: TK-10
Malme-3M = system: Malme-3M
NCI-H226 = system: NCI-H226
RXF 393 = system: RXF 393
A498 = system: A498

| Structure (SMILES) | GI50 (ACHN) | GI50 (CAKI-1) | GI50 (COLO 205) | GI50 (HCT-15) [µM] | GI50 (HL-60) | GI50 (Hs-578T) | GI50 (IGROV-1) | GI50 (MDA-MB-435) | GI50 (NCI-H460) | GI50 (OVCAR-8) | GI50 (PC-3) | GI50 (SF-268) | GI50 (SF-539) | GI50 (SW-620) | GI50 (T47D) | GI50 (TK-10) | GI50 (Malme-3M) | GI50 (NCI-H226) | GI50 (RXF 393) | GI50 (A498) |
| --- | --- | --- | --- | --- | --- | --- | --- | --- | --- | --- | --- | --- | --- | --- | --- | --- | --- | --- | --- | --- |
| c1ccc(CSP234N5CCN2CCN3CCN4CC5)c(CSP234N5CCN2CCN3CCN4CC5)c1 | > 100 µM (inactive) | > 100 µM (inactive) | 13.6 µM (inactive) | > 100 | 3.65 µM (inactive) | 80.2 µM (inactive) | > 100 µM (inactive) | > 100 µM (inactive) | > 100 µM (inactive) | > 100 µM (inactive) | > 100 µM (inactive) | > 100 µM (inactive) | 41.7 µM (inactive) | > 100 µM (inactive) | > 100 µM (inactive) | > 100 µM (inactive) |  |  |  |  |
| CC(C)N(/C(F)=N\C(=O)Nc1ccccc1C(F)(F)F)C(C)C | 39.4 µM (inactive) | 37.4 µM (inactive) | 44.7 µM (inactive) | 34.3 | 31 µM (inactive) | 60.3 µM (inactive) | 33.8 µM (inactive) |  | 68.2 µM (inactive) | 58.1 µM (inactive) | 33.3 µM (inactive) | 89.3 µM (inactive) | 92 µM (inactive) | 44.7 µM (inactive) |  | 52.5 µM (inactive) | 31.6 µM (inactive) | > 100 µM (inactive) |  |  |
| Cc1ccnc(NC(=S)Nc2ccc([N+](=O)[O-])cc2)c1 | > 100 µM (inactive) |  |  | > 100 | > 100 µM (inactive) | 24 µM (inactive) | 46.2 µM (inactive) | > 100 µM (inactive) | 80.5 µM (inactive) | 35.5 µM (inactive) | > 100 µM (inactive) | 63.5 µM (inactive) | 26.4 µM (inactive) | > 100 µM (inactive) | > 100 µM (inactive) | > 100 µM (inactive) |  | > 100 µM (inactive) | > 100 µM (inactive) |  |
| CC(=O)ON(C(C)=O)c1ccc(-c2nc3ccccc3s2)cc1C | 32.6 µM (inactive) | 10.4 µM (inactive) | 20.5 µM (inactive) | 12.9 |  | 37.8 µM (inactive) | 13 µM (inactive) | 60.3 µM (inactive) | 21.3 µM (inactive) | 52.1 µM (inactive) | 30.5 µM (inactive) | 52.1 µM (inactive) | 41 µM (inactive) | 38.3 µM (inactive) |  | 2.96 µM (inactive) | > 100 µM (inactive) | 2.6 µM (inactive) |  | 5.11 µM (inactive) |
| O=C1CSC(c2ccccc2O)N1c1ccc(Oc2ccc(Cl)cc2)c(Cl)c1 (configuration not stated) | 28.2 µM (inactive) | 23.3 µM (inactive) | 18.5 µM (inactive) | 19.5 | 16.6 µM (inactive) | 14.9 µM (inactive) | 8.91 µM (inactive) | 21.5 µM (inactive) | 19.4 µM (inactive) | 25.5 µM (inactive) | 22.3 µM (inactive) | 12.9 µM (inactive) | 15.7 µM (inactive) | 31.4 µM (inactive) | 11.7 µM (inactive) | 36.1 µM (inactive) | 11.9 µM (inactive) | 30.8 µM (inactive) |  |  |
| O=C1CCC2(c3ccccc3)Nc3ccncc3N12 (configuration not stated) | > 10 µM (inactive) |  |  | > 10 | > 10 µM (inactive) | > 10 µM (inactive) |  | > 10 µM (inactive) | > 10 µM (inactive) | > 10 µM (inactive) | > 10 µM (inactive) | > 10 µM (inactive) | > 10 µM (inactive) | > 10 µM (inactive) | > 10 µM (inactive) | > 10 µM (inactive) | > 10 µM (inactive) | > 10 µM (inactive) |  |  |
| O=C(CC(C(=O)c1ccsc1)c1cccs1)c1ccccc1 (configuration not stated) | > 100 µM (inactive) | > 100 µM (inactive) | > 100 µM (inactive) | 56.4 | 71.4 µM (inactive) | > 100 µM (inactive) | > 100 µM (inactive) | 57.3 µM (inactive) | 36.6 µM (inactive) | 89.1 µM (inactive) |  | > 100 µM (inactive) | > 100 µM (inactive) | > 100 µM (inactive) | 9.57 µM (inactive) | > 100 µM (inactive) |  | > 100 µM (inactive) | 14 µM (inactive) | 29.9 µM (inactive) |
| CSC1(Cc2ccccn2)C(=O)Nc2cccc([N+](=O)[O-])c21 (configuration not stated) | > 100 µM (inactive) | > 100 µM (inactive) | > 100 µM (inactive) | > 100 | 42.3 µM (inactive) | > 100 µM (inactive) | > 100 µM (inactive) | > 100 µM (inactive) | > 100 µM (inactive) | > 100 µM (inactive) | > 100 µM (inactive) | > 100 µM (inactive) | > 100 µM (inactive) | 56.4 µM (inactive) | 52.1 µM (inactive) | > 100 µM (inactive) | 47.9 µM (inactive) | > 100 µM (inactive) |  |  |
| OCC1OC(n2nc(-c3ccccc3)nc2-c2cnccn2)C(O)C1O (configuration not stated) |  |  | > 100 µM (inactive) | > 100 | > 100 µM (inactive) |  | > 100 µM (inactive) | > 100 µM (inactive) | > 100 µM (inactive) | > 100 µM (inactive) | > 100 µM (inactive) | > 100 µM (inactive) | > 100 µM (inactive) | > 100 µM (inactive) | > 100 µM (inactive) | > 100 µM (inactive) |  |  |  |  |
